Common to all, as to format: cell-based
In assay [1] the test system is Proteus mirabilis C977. The assay can be described thus: MIC by serial dilution in Iso-Sensitest Agar, P. mirabilis C977. The note with it: 24 h, overnight at 37° C. As to the method: (§1) Minimum Inhibitory Concentration (MIC) values of compounds of the invention against P. mirabilis C977, S. marcescens US 32, and P. aeruginosa K79961 were determined by serial dilution in Iso-Sensitest Agar (from Oxiod Ltd., Basinstoke, England). The plates were inoculated with […] colony forming units and incubated overnight at 37° C. The MIC values recorded in Table 1 were the lowest concentration of antibiotic to inhibit growth. Comparative data for sodium 7β[2-(3,4-diacetoxyphenyl)-2-[(4-ethyl-2,3-dioxopiperazin-1yl)carbonylamino]acetomido]-7α-formamido-3-[(2-methyl-1,3,4-thiadiazol-5yl)thiomethyl]ceph-3em-4-carboxylate (Compound A), disclosed in European Patent Application No. 82303821.1 (Publication No. 0 071 395) are also given.

The subject of assay [2] is Serratia marcescens US 32. The assay can be described thus: MIC by serial dilution in Iso-Sensitest Agar, S. marcescens US 32. Conditions: US32, 24 h, overnight at 37° C. As to the method: as §1
Assay [3] has as its system Pseudomonas aeruginosa K79961. The assay can be described thus: MIC by serial dilution in Iso-Sensitest Agar, P. aeruginosa K79961. The note with it: 24 h, overnight at 37° C. As to the method:
as §1

On to `CCN1CCN(C(=O)N[C@@H](C(=O)N[C@]2(NC=O)C(=O)N3C(C(=O)O)=C(CSc4nncs4)CS[C@@H]32)c2ccc(O)c(O)c2)C(=O)C1=O` [Example 2, Sodium 7β-[D-2-(3,4-Dihydroxyphenyl)-2-[(4-ethyl-2,3-dioxopiperazin-1-yl)carbonylamino]acetamido]-7α-formamido-3-[(1,3,4-thiadiazol-2-yl)thiomethyl]ceph-3-em-4-carboxylate], for which the MIC in assay [1] turned out to be 1 µg/mL; in assay [2] it was 0.12 µg/mL; in assay [3], 0.5 µg/mL.

With `CCN1CCN(C(=O)NC(C(=O)N[C@]2(NC=O)C(=O)N3C(C(=O)O)=C(CSc4nnc(C)s4)CS[C@@H]32)c2ccc(OC(C)=O)c(OC(C)=O)c2)C(=O)C1=O` (stereo partly drawn) [Compound A, sodium 7β[2-(3,4-diacetoxyphenyl)-2-[(4-ethyl-2,3-dioxopiperazin-1yl)carbonylamino]acetomido]-7α-formamido-3-[(2-methyl-1,3,4-thiadiazol-5yl)thiomethyl]ceph-3em-4-carboxylate, reference compound], the MIC in assay [1] was found to be 4 µg/mL; in assay [2], 1 µg/mL; in assay [3], 2 µg/mL.

Regarding `CCN1CCN(C(=O)N[C@@H](C(=O)N[C@]2(NC=O)C(=O)N3C(C(=O)O)=C(CSc4nncs4)CS[C@@H]32)c2ccc(OC(C)=O)c(OC(C)=O)c2)C(=O)C1=O` [Example 1, Sodium 7β-[D-2-(3,4-Diacetoxyphenyl)-2-[(4-ethyl-2,3-dioxopiperazin-1-yl)carbonylamino]acetamido]-7α-formamido-3-[(1,3,4-thiadiazol-2-yl)thiomethyl]ceph-3-em-4-carboxylate], the results for the minimum inhibitory concentration (MIC) in assay [1], in assay [2] and in assay [3] were 1 µg/mL, 0.25 µg/mL and 0.25 µg/mL, respectively.
